Measured values taken from patent US20100021931A1, “Fluorescence based reporter construct for the direct detection of TGF-beta receptor activation and modulators thereof” (Technische Universitat Dresden, priority 2008, published 2010).

Legend:
[1] = tested on: phosphorylated Smad1/5 transcription factors; assay: phospho-SMAD1/5/8 antibody staining of fixed embryos; format: in vivo, Danio rerio; conditions: 30% epiboly
Source text: While at that stage there is not yet a morphological marker for the prospective dorsal or ventral sides of the embryo, BMP pathway activation can be detected by accumulation of phosphorylated Smad1/5 transcription factors in the prospective ventral nuclei. […] As shown in FIG. 3 (top), fluorescence of the TIPF reporter (left) coincides with the region of increased pSmad staining (center).

homozygous tkv mutants = assay: Rescue of tkv mutant flies by the ubiquitin-promoter reporter transgene; format: in vivo, Drosophila; conditions: expressed from the ubiquitin promoter in transgenic flies
Source text: Using P-element mediated transgenesis with the plasmids described above transgenic fly lines were generated in a w^1118 background expressing the TIPF fusion protein under control of the ubiquitously expressed Ubiquitin promoter or in a tissue specific manner from the UAS promotor. For both transgenic construct insertions on all three major chromosomes were obtained. Insertions on the X chromosome were balanced with FM6 w^−, 2nd chromosome insertion were balanced with CyO and 3rd chromosomal insertions with TM3, Sb.

[2] = tested on: zebrafish BMP receptor ALK3; assay: Zebrafish ALK3 reporter in zebrafish assays according to example 1; format: in vivo; conditions: assays as in example 1
Sequence of zebrafish BMP receptor ALK3 (as listed by the source): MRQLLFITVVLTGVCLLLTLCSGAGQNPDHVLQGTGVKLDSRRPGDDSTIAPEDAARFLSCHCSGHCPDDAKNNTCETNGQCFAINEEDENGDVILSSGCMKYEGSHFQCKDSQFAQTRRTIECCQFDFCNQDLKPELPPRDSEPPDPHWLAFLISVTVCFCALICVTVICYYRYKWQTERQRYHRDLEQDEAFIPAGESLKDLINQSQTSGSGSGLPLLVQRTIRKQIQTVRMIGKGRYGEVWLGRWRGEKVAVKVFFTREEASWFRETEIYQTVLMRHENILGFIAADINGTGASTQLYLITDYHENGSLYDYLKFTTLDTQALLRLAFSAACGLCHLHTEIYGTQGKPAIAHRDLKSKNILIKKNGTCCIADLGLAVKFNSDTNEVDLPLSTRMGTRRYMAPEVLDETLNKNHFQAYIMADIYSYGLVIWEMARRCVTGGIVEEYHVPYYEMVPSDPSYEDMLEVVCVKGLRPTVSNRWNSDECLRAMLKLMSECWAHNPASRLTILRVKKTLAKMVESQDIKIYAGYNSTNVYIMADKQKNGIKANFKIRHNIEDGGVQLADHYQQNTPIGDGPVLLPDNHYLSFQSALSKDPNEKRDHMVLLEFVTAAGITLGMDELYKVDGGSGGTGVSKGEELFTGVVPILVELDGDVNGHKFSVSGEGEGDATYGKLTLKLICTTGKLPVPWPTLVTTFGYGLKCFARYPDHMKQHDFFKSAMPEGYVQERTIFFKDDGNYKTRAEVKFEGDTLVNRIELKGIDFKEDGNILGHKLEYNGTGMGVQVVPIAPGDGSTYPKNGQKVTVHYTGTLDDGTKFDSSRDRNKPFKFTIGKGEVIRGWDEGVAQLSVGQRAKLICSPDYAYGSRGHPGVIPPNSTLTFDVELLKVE
Source text: To generate the zebrafish ALK3 reporter construct, the Tkv CDS was excised from the TIPF reporter (as constructed in example 1) with PstI and EcoRI to obtain the linearized expression vector without the TGF-beta receptor according to SEQ ID No. 22. In this vector the corresponding full length cDNA encoding the zebrafish ALK3 according to SEQ ID No. 2 was cloned, which was amplified from a custom cDNA library using primers carrying EcoRI (5′primer) and NsiI (3′primer).
Zebrafish assays were performed according to example 1.

Substance: TIPF reporter: fusion protein of Drosophila Tkv, an inverse pericam core and Drosophila FKBP12 linked by short linkers
- reporter fluorescence versus region of phospho-Smad staining [1]: coincided with the region of BMP pathway activation
- rescue of lethality of homozygous tkv mutants (homozygous tkv mutants): rescue the lethality associated with homozygous tkv mutants to full adult survival

Substance: zebrafish ALK3 reporter: Inverse Pericam core and Drosophila FKBP12 cassette fused to the zebrafish BMP receptor ALK3
- behaviour of reporter in zebrafish assays [2]: behaved like the fly version used in example 1
